For the assay, the target named is T1, human TLR8 (Homo sapiens, UniProt Q9NR97).
T1 construct: host or cells: HEK293 (HEK-Blue hTLR8)
T1 sequence (Q9NR97 27-1041): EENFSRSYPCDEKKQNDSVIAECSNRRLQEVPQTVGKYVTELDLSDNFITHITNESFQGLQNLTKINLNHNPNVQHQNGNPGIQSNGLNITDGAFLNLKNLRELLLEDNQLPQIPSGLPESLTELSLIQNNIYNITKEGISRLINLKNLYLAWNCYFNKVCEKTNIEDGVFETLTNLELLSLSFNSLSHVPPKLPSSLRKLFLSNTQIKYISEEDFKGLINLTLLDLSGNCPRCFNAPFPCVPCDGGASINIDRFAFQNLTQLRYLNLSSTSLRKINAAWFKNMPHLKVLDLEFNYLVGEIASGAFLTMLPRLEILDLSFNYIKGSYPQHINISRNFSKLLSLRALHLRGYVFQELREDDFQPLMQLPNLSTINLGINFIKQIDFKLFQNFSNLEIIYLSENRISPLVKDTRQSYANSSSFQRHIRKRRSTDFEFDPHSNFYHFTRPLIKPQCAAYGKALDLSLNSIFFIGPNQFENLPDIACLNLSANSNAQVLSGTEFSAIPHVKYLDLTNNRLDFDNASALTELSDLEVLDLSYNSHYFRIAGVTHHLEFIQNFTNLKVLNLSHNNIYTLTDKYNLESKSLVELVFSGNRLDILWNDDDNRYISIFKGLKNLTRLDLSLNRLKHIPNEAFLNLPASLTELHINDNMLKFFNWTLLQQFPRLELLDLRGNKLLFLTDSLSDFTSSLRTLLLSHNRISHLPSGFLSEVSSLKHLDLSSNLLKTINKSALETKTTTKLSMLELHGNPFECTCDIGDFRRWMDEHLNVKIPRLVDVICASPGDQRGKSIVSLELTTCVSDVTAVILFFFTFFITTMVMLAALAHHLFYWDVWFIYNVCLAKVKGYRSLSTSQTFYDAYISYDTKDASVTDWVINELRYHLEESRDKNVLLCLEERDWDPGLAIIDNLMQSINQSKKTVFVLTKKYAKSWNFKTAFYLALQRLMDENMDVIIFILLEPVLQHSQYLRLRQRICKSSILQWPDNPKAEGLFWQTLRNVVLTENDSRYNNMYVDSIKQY
As to the kind of experiment: HEK293-Blue-hTLR-8 cells assay. The format is cell-based. The conditions noted are these: HEK293-Blue-hTLR8 cells, R848 stimulation, 20 hrs, SEAP reporter; read-out: HEK/hTLR8 IC50. From the text: A stable HEK293-Blue-hTLR-8 cell line was purchased from InvivoGen (Cat. #: hkb-htlr8, San Diego, California, USA). These cells were originally designed for studying the stimulation of human TLR8 by monitoring the activation of NF-κB. A SEAP (secreted embryonic alkaline phosphatase) reporter gene was placed under the control of the IFN-β minimal promoter fused to five NF-κB and AP-1-binding sites. The SEAP was induced by activating NF-κB and AP-1 via stimulating HEK-Blue hTLR8 cells with TLR8 ligands. Therefore the reporter expression was declined by TLR8 antagonist under the stimulation of a ligand, such as R848, for incubation of 20 hrs. The cell culture supernatant SEAP reporter activity was determined using QUANTI-Blue™ kit (Cat. #: rep-qb1, Invivogen, San Diego, Ca, USA) at a wavelength of 640 nm, a detection medium that turns purple or blue in the presence of alkaline phosphatase.
HEK293-Blue-hTLR8 cells were incubated at a density of 250,000˜450,000 cells/mL in a volume of 170 μL in a 96-well plate in Dulbecco's Modified Eagle's medium (DMEM) containing 4.5 g/L glucose, 50 U/mL penicillin, […], […], 2 mM L-glutamine, 10% (v/v) heat-inactivated fetal bovine serum with addition of 20 μL test compound in a serial dilution in the presence of final DMSO at 1% and 10 μL of 60 uM R848 in above DMEM, perform incubation under 37° C. in a CO2 incubator for 20 hrs. Then 20 μL of the supernatant from each well was incubated with 180 μL Quanti-blue substrate solution at 37° C. for 2 hrs and the absorbance was read at 620˜655 nm using a spectrophotometer. The signaling pathway that TLR8 activation leads to downstream NF-κB activation has been widely accepted, and therefore similar reporter assay was modified for evaluating TLR8 antagonist.

pIC50: −log10 of the molar value.

`[2H]c1ccc2c(N3C[C@@H]4C[C@H](Nc5ccc(C[C@H]6CNCCO6)cc5)CCN4[C@H](C)C3)ccc(C#N)c2n1` [Example 34, 5-[(4R,8R,9aS)-4-methyl-8-[4-[[(2S)-morpholin-2-yl]methyl]anilino]-1,3,4,6,7,8,9,9a-octahydropyrido[1,2-a]pyrazin-2-yl]-2-deuterio-quinoline-8-carbonitrile]: the pIC50 was 7.40. For the compound `C[C@@H]1CN(c2ccc(C#N)c3ncccc23)C[C@@H]2C[C@@H](Oc3ccc(N4CCNCC4)nc3)CCN21` [Example 16, 5-[(4R,8S,9aS)-4-methyl-8-[(6-piperazin-1-yl-3-pyridyl)oxy]-1,3,4,6,7,8,9,9a-octahydropyrido[1,2-a]pyrazin-2-yl]quinoline-8-carbonitrile], the pIC50 was 8.10. Take `C[C@@H]1CN(c2ccc(C#N)c3ncccc23)C[C@H]2C[C@H](c3ccc(N4CCNCC4)nc3)CCN21` [Example 15, 5-[(4R,8R,9aR)-4-methyl-8-(6-piperazin-1-yl-3-pyridyl)-1,3,4,6,7,8,9,9a-octahydropyrido[1,2-a]pyrazin-2-yl]quinoline-8-carbonitrile]: the pIC50 is 7.10. Regarding `C[C@@H]1CN(c2ccc(C#N)c3ncccc23)C[C@@H]2C[C@@H](c3ccc(C4CNCCO4)cc3)CCN21` (stereo partly drawn) [Example 24, 5-[(4R,8S,9aS)-4-methyl-8-(4-morpholin-2-ylphenyl)-1,3,4,6,7,8,9,9a-octahydropyrido[1,2-a]pyrazin-2-yl]quinoline-8-carbonitrile], the pIC50 is 7.85. Take `C[C@@H]1CN(c2ccc(C#N)c3ncccc23)C[C@@H]2C[C@H](c3ccc(N4CCNCC4)nc3)CCN21` (stereo in doubt) [Example 2, 5-[(4R,8R)-4-methyl-8-(6-piperazin-1-yl-3-pyridyl)-1,3,4,6,7,8,9,9a-octahydropyrido[1,2-a]pyrazin-2-yl]quinoline-8-carbonitrile]: the pIC50 is 7.72.

Regarding `C[C@@H]1CN(c2ccc(C#N)c3ncccc23)C[C@@H]2C[C@H](NCc3ccc(N4CCNCC4)cc3)CCN21` [Example 1, 5-[(4R,8R,9aS)-4-methyl-8-[(4-piperazin-1-ylphenyl)methylamino]-1,3,4,6,7,8,9,9a-octahydropyrido[1,2-a]pyrazin-2-yl]quinoline-8-carbonitrile], the pIC50 is 7.17. On to `C[C@@H]1CN(c2ccc(C#N)c3ncccc23)C[C@@H]2C[C@H](c3ccc(N4CCNCC4)nc3)CCN21` [Example 4, 5-[(4R,8R,9aS)-4-methyl-8-(6-piperazin-1-yl-3-pyridyl)-1,3,4,6,7,8,9,9a-octahydropyrido[1,2-a]pyrazin-2-yl]quinoline-8-carbonitrile], for which the pIC50 was 7.74. Take `C[C@@H]1CN(c2ccc(C#N)c3ncccc23)C[C@@H]2C[C@@H](NCc3ccc(N4CCNCC4)cc3)CCN21` [Example 17, 5-[(4R,8S,9aS)-4-methyl-8-[(4-piperazin-1-ylphenyl)methylamino]-1,3,4,6,7,8,9,9a-octahydropyrido[1,2-a]pyrazin-2-yl]quinoline-8-carbonitrile]: the pIC50 was 7.27. As for `[2H]c1ccc2c(N3C[C@@H]4C[C@@H](N5CC(c6ccc(N7C[C@@H](N)[C@H](OC)C7)cc6)C5)CCN4[C@H](C)C3)ccc(C#N)c2n1` [Example 36], the figure is 7.74. Turning to `CO[C@@H]1CN(c2ccc(C3CN([C@@H]4CCN5[C@@H](C4)CN(c4ccc(C#N)c6ncccc46)C[C@H]5C)C3)cc2)C[C@H]1N` [Example 30, 5-[(4R,8R,9aS)-8-[3-[4-[(3R,4R)-3-amino-4-methoxy-pyrrolidin-1-yl]phenyl]azetidin-1-yl]-4-methyl-1,3,4,6,7,8,9,9a-octahydropyrido[1,2-a]pyrazin-2-yl]quinoline-8-carbonitrile], the pIC50 is 7.16. For `C[C@@H]1CN(c2ccc(C#N)c3ncccc23)C[C@@H]2C[C@H](Nc3ccc(C[C@@H]4CNCCO4)cc3)CCN21` [Example 21, 5-[(4R,8R,9aS)-4-methyl-8-[4-[[(2R)-morpholin-2-yl]methyl]anilino]-1,3,4,6,7,8,9,9a-octahydropyrido[1,2-a]pyrazin-2-yl]quinoline-8-carbonitrile], the pIC50 is 7.27. With `CO[C@H]1CN(c2ccc(O[C@H]3CCN4[C@@H](C3)CN(c3ccc(C#N)c5ncccc35)C[C@H]4C)cn2)C[C@H]1N` [Example 28, 5-[(4R,8S,9aS)-8-[[6-[(3R,4S)-3-amino-4-methoxy-pyrrolidin-1-yl]-3-pyridyl]oxy]-4-methyl-1,3,4,6,7,8,9,9a-octahydropyrido[1,2-a]pyrazin-2-yl]quinoline-8-carbonitrile], the pIC50 was 8.15. The figure for `C[C@@H]1CN(c2ccc(C#N)c3ncccc23)C[C@@H]2C[C@H](c3ccc(N4CC(N)C4)nc3)CCN21` [Example 7, 5-[(4R,8R,9aS)-8-[6-(3-aminoazetidin-1-yl)-3-pyridyl]-4-methyl-1,3,4,6,7,8,9,9a-octahydropyrido[1,2-a]pyrazin-2-yl]quinoline-8-carbonitrile] is 6.90.
